According to ChEMBL document CHEMBL1201862, “PubChem BioAssay data set” (2004):
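Compound exposure: 48 hours, 5 concentrations, 96-well plates. GI50 marks 50% less growth.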 The source made the active and inactive calls. No stated cut-off is given here; in the data, active = GI50 up to about 1.1 µM and inactive = higher.

Key:
Assay in all cases: NCI-60 cell line screen, 48 h
UO-31 = tested on: UO-31
SN12C = tested on: SN12C
CAKI-1 = tested on: CAKI-1
KM12 = tested on: KM12
TK-10 = tested on: TK-10
OVCAR-5 = tested on: OVCAR-5
RXF 393 = tested on: RXF 393
COLO 205 = tested on: COLO 205
HOP-92 = tested on: HOP-92
HOP-62 = tested on: HOP-62
OVCAR-3 = tested on: OVCAR-3
NCI-H226 = tested on: NCI-H226
IGROV-1 = tested on: IGROV-1
SF-539 = tested on: SF-539
A549 = tested on: A549
ACHN = tested on: ACHN

Measured: GI50

O=C(c1ccccc1)N1C2CCC1C(C(F)(F)F)=C2C(F)(F)F
inactive: UO-31 > 100 µM | SN12C > 100 µM | CAKI-1 > 100 µM | KM12 > 100 µM | TK-10 > 100 µM | OVCAR-5 > 100 µM | RXF 393 > 100 µM | COLO 205 > 100 µM | HOP-92 > 100 µM | HOP-62 > 100 µM | OVCAR-3 > 100 µM | NCI-H226 > 100 µM | IGROV-1 > 100 µM | SF-539 > 100 µM | A549 > 100 µM

Cc1ccc(Nc2nc(C)c(C(/C=C/c3ccc(/C=C/C(=N/NC(=O)C[n+]4ccccc4)c4sc(Nc5ccc(C)cc5[N+](=O)[O-])nc4C)cc3)=N\NC(=O)C[n+]3ccccc3)s2)c([N+](=O)[O-])c1
inactive: ACHN 82.8 µM | UO-31 46.5 µM | SN12C 55.8 µM | CAKI-1 48.6 µM | KM12 > 100 µM | TK-10 51.3 µM | OVCAR-5 50.8 µM | RXF 393 > 100 µM | COLO 205 > 100 µM | HOP-62 > 100 µM | OVCAR-3 > 100 µM | NCI-H226 14.6 µM | IGROV-1 > 100 µM | SF-539 89.1 µM | A549 > 100 µM

Oc1cc(-c2cccs2)nc2cc3c(cc12)OCO3
inactive: ACHN 7.31 µM | UO-31 4.69 µM | SN12C 6.76 µM | KM12 2.45 µM | TK-10 21.3 µM | OVCAR-5 7.98 µM | RXF 393 1.9 µM | COLO 205 9.06 µM | HOP-92 > 100 µM | HOP-62 3.96 µM | OVCAR-3 4.63 µM | NCI-H226 4.32 µM | IGROV-1 3.37 µM | SF-539 3.7 µM | A549 4.9 µM

COc1ccc2c3c(c(C(=O)O)oc13)C(CCC(=O)O)CC2 (configuration not stated)
inactive: ACHN > 100 µM | SN12C > 100 µM | CAKI-1 > 100 µM | TK-10 > 100 µM | RXF 393 > 100 µM | COLO 205 > 100 µM | HOP-92 > 100 µM | HOP-62 > 100 µM | OVCAR-3 > 100 µM | IGROV-1 > 100 µM | SF-539 > 100 µM | A549 > 100 µM

Cc1cc(N(CCC#N)CCC#N)ccc1/N=N/c1ccccc1[N+](=O)[O-]
inactive: ACHN > 100 µM | UO-31 > 100 µM | SN12C > 100 µM | CAKI-1 > 100 µM | KM12 > 100 µM | TK-10 > 100 µM | OVCAR-5 > 100 µM | RXF 393 > 100 µM | COLO 205 > 100 µM | HOP-62 43.6 µM | OVCAR-3 > 100 µM | NCI-H226 > 100 µM | IGROV-1 > 100 µM | SF-539 > 100 µM | A549 > 100 µM

O=S(=O)(C1=CC(S(=O)(=O)c2ccccc2)COC1)c1ccccc1 (configuration not stated)
inactive: ACHN > 100 µM | UO-31 > 100 µM | SN12C > 100 µM | CAKI-1 > 100 µM | KM12 > 100 µM | TK-10 > 100 µM | RXF 393 > 100 µM | COLO 205 > 100 µM | HOP-62 > 100 µM | OVCAR-3 > 100 µM | IGROV-1 > 100 µM | SF-539 > 100 µM | A549 > 100 µM

COc1cc(C(=O)N2CCc3c([nH]c4c([N+](=O)[O-])c(OC)ccc34)C2C)cc(OC)c1OC (configuration not stated)
inactive: ACHN > 100 µM | UO-31 > 100 µM | SN12C > 100 µM | CAKI-1 > 100 µM | KM12 > 100 µM | TK-10 > 100 µM | OVCAR-5 > 100 µM | RXF 393 26.7 µM | COLO 205 > 100 µM | HOP-62 > 100 µM | OVCAR-3 > 100 µM | NCI-H226 > 100 µM | IGROV-1 8.11 µM | SF-539 89.1 µM | A549 > 100 µM

CCCCCCCCSC(=O)NCCCC
inactive: ACHN 34.7 µM | UO-31 19.6 µM | SN12C 33 µM | CAKI-1 36.1 µM | KM12 51.8 µM | TK-10 46.7 µM | OVCAR-5 48.4 µM | RXF 393 21.5 µM | COLO 205 54.6 µM | HOP-92 14.4 µM | OVCAR-3 41.3 µM | IGROV-1 > 100 µM | SF-539 74 µM | A549 38.2 µM

CC(C)C12Cc3c(ccc4ccccc34)OC1(C)Oc1ccc3ccccc3c1C2 (configuration not stated)
inactive: ACHN > 100 µM | UO-31 > 100 µM | SN12C > 100 µM | CAKI-1 > 100 µM | KM12 > 100 µM | TK-10 > 100 µM | OVCAR-5 > 100 µM | RXF 393 > 100 µM | COLO 205 > 100 µM | HOP-92 > 100 µM | OVCAR-3 59.7 µM | NCI-H226 > 100 µM | IGROV-1 > 100 µM | SF-539 > 100 µM | A549 > 100 µM

CCOC(=O)C(=O)Nc1cc(Cl)c(Cl)cc1Cl
inactive: ACHN > 100 µM | UO-31 > 100 µM | SN12C > 100 µM | CAKI-1 > 100 µM | KM12 > 100 µM | TK-10 > 100 µM | OVCAR-5 > 100 µM | RXF 393 > 100 µM | COLO 205 > 100 µM | HOP-92 > 100 µM | HOP-62 > 100 µM | OVCAR-3 > 100 µM | NCI-H226 > 100 µM | IGROV-1 > 100 µM | SF-539 > 100 µM

NCCNCc1c2ccccc2c(CNCCN)c2ccccc12
inactive: ACHN 34.8 µM | UO-31 49.4 µM | SN12C 10.5 µM | KM12 15.3 µM | TK-10 69 µM | OVCAR-5 27.4 µM | RXF 393 15.7 µM | COLO 205 8.17 µM | HOP-92 22.2 µM | HOP-62 24.3 µM | OVCAR-3 18.2 µM | IGROV-1 32.3 µM | SF-539 12.2 µM | A549 12.1 µM

Cc1cc(C)c(C(=O)O)c(N)c1O
inactive: ACHN > 100 µM | UO-31 > 100 µM | SN12C > 100 µM | CAKI-1 > 100 µM | KM12 > 100 µM | TK-10 > 100 µM | OVCAR-5 > 100 µM | RXF 393 > 100 µM | COLO 205 > 100 µM | HOP-62 > 100 µM | OVCAR-3 > 100 µM | NCI-H226 > 100 µM | IGROV-1 > 100 µM | A549 > 100 µM

CC1=C(C(=O)Nc2ccc(C)cc2)C(c2cccc([N+](=O)[O-])c2)C(C(=O)Nc2ccc(C)cc2)=C(C)N1
inactive: ACHN 18.8 µM | UO-31 22 µM | SN12C 20.9 µM | CAKI-1 27.9 µM | KM12 15.6 µM | TK-10 31.6 µM | OVCAR-5 53.2 µM | RXF 393 22.8 µM | COLO 205 14.1 µM | HOP-62 29.5 µM | OVCAR-3 20 µM | NCI-H226 69.5 µM | IGROV-1 20.9 µM | SF-539 19 µM | A549 26.2 µM
